Columns and labels:
HSV-1 = assay: Prophylactic and therapeutic DECON treatment of HCEs with HSV-1 infection in vitro; format: cell-based; settings: prophylactically added
Description: Cell monolayer was washed twice with PBS before whole media with required HSV infection was added.
To comprehensively test the efficacy of drug release and resulting antiviral activity of DECON particles, a prophylactic and therapeutic model of treatment was used on HCEs followed by HSV-1 infection in vitro.
Flow cytometry was conducted on the samples at 24 hpi showing the extent of cells infected with HSV-1 GFP (see FIG. 8C). FIG. 8d provides representative immunoblots for samples showing HSV-1 gB protein in comparison with GAPDH for HSV-1 infected HCEs at 24 hpi.

HSV-2 (333 strain) = assay: Murine model of vaginal HSV-2 infection; format: in vivo, BALB/c mice
Description: Naïve 4-week-old female BALB/c mice were purchased from Jackson Laboratory (Bar Harbor, USA) and housed in the university BRL for a period of one week for acclimatization before they were subcutaneously injected with 2 mg of medroxyprogesterone (Depo-Provera) per mice. On day 5 post injection, mice were intravaginally infected with 1×10^6 PFU HSV-2 (333 strain). Similar to the ocular model of infection, DECON was applied topically (intravaginally) on alternate days while ACV (50 mg/mL in PBS) was administered via an intraperitoneal injection. PBS was applied intravaginally as mock treatment for the control group. Vaginal swabs were collected using a Calgiswab (Calcium Alginate Mini-tip Urethro-Genital Swab, Puritan) dipped in OptiMEM (Gibco, USA). Images of the ano-genital region were taken on day 0 and day 7 post infection using a Carl Zeiss stereoscope at 7.5× magnification.
Experiments involving animals were performed under a UIC approved protocol ACC 14-091. The mice were monitored for weight loss and disease scores were recorded in a blinded fashion for 14 days. Sick mice were euthanized according to the IUCAC protocol followed by the collection of ocular/vaginal tissue and lymph nodes. Ocular wash and vaginal swabs were used to assess viral titers using a plaque assay.
With the success of topical ocular therapy with DECON, it was investigated whether this delivery platform was effective for vaginal HSV-2 infections as well. Naïve Balb/c mice were primed with medroxyprogestrone 5 days prior to intravaginal HSV-2 infection. Starting at day 1 post infection, mice were either treated with topical DECON or systemic ACV (5 mg/kg) by intraperitoneal injections […], DECON was administered intravaginally […]. The genital area was imaged using a stereoscope on days 0 and 7 to visualize the extent of damage done to the site of infection. […] This was observed by the phenotype of infection and analyzed by plaque assays from vaginal swabs. […] In the mock treated group, 60% of mice succumbed to death by day 14 post infection, while 20% of mice treated with systemic ACV and none of DECON treated mice succumbed to death (FIG. 5D).

HSV-1 (McKrae) = format: in vivo

Compound: Nc1nc2c(ncn2COCCO)c(=O)[nH]1 [ACV, Acyclovir]
- antiviral response (HSV-1): did not elicit a robust antiviral response
- mice succumbed to death (HSV-2 (333 strain); by day 14 post infection): 20%
- inflammation of vaginal and anogenital area (HSV-2 (333 strain); compared to mock-treated mice): only slight inflammation
- viral titers, plaque assays from vaginal swabs (HSV-2 (333 strain); day 4 and day 7 post infection, DECON intravaginal, ACV 5 mg/kg intraperitoneal): steady reduction in viral titers
- lymph node size (HSV-2 (333 strain); day 14 post infection): little to no increase in size

Compound: O=c1[nH]c(=O)n([C@H]2C[C@H](O)[C@@H](CO)O2)cc1C(F)(F)F [TFT, trifluridine]
- mice succumbed to death (HSV-1 (McKrae); by day 15, topical treatment on alternate days): Up to 20%
- viral replication / infection vs mock treated (HSV-1 (McKrae); topical, alternate days, ocular washes): did not show any significant reduction in viral replication

From US20220160872A1, “Drug Adsorbed Highly Porous Activated Carbon for Enhanced Drug Delivery” (THE BOARD OF TRUSTEES OF THE UNIVERSITY OF ILLINOIS, priority 2019, published 2022)
